The text below walks through data of patent US9723817B2 (priority 2011, dated 2017).

The test system of one experiment is wild type N2 C. elegans. The experiment is described as follows: EPG recording of pharyngeal pumping in microfluidic EPG array, wild type worms. It counts as in vivo, Caenorhabditis elegans. The method, then: (§1) C. elegans strains were grown on Nematode Growth Medium (NGM) agar plates seeded with the OP50 strain of E. coli. All strains were obtained from the Caenorhabditis Genetics Center (CGC; Minneapolis, Minn.). Wild-type worms were Bristol N2 and Ivermectin (IVM) resistant mutants were DA1316 avr-14(ad1302); avr-15(ad1051); glc-1(pk54). Worms were age synchronized by allowing gravid adults to lay eggs on seeded NGM plates for approximately 6 hr. The adults were then removed and embryos allowed to develop to adulthood at room temperature.
All experiments utilized M9 buffer (recipe available on the World Wide Web at 130.15.90.245/wormlab_recipe_book.htm#Commonlab; containing KH2PO4, NaHPO4, NaCl and MgSO4) to which serotonin (5HT) was added to stimulate pharyngeal pumping (Raizen and Avery, Neuron 1994 March; 12(3):483-95). Stocks of serotonin creatine sulfate monohydrate (Sigma H7752; St. Louis, Mo.) were prepared in M9 buffer at 40 mM and held in small aliquots at −20° C. until use. Each day of an experiment, a fresh aliquot was thawed and diluted to 10 mM 5HT in M9 buffer. This “M9-5HT” buffer was the control medium to which drugs or other compounds were added. Stock solutions of ivermectin (10 mM; Sigma 8898) were made up in dimethyl sulfoxide (DMSO, Fisher D-136; Fair Lawn, N.J.) and held at −20° C. for no longer than 2 wk. On the day of an experiment, IVM was diluted to the final concentration in M9-5HT buffer containing 0.005% Fast Green (Fisher F-99) as a visual indicator of drug flow within the chip (see below). The dye-containing M9-5HT buffer was filtered (PALL Life Sciences 25 mm Acrodisc syringe filter with 0.2 μm HT Tuffryn Membrane; Port Washington, N.Y.) before drug or DMSO was added.
Young adult worms were transferred from growth plates into a glass well containing M9-5HT buffer and left to acclimate for 10 minutes. […]
(§2) EPGs were recorded by a pair of 4-channel AC differential amplifiers (A-M Systems model 1700, Carlsborg, Wash.) connected to electrodes inserted into the device. […]

Experiment [1] concerns ivermectin resistance mutant C. elegans avr-14(ad1302); avr-15(ad1051); glc-1(pk54). The experiment is described as follows: EPG recording of pharyngeal pumping in microfluidic EPG array, ivermectin-resistant mutant worms. The experiment is classed as in vivo, Caenorhabditis elegans. Conditions: 10 μM ivermectin in M9-5HT buffer, ivermectin-resistant mutant (FIG. 5). The method, then:
as §1
All experiments utilized M9 buffer (recipe available on the World Wide Web at 130.15.90.245/wormlab_recipe_book.htm#Commonlab; containing KH2PO4, NaHPO4, NaCl and MgSO4) to which serotonin (5HT) was added to stimulate pharyngeal pumping (Raizen and Avery, Neuron 1994 March; 12(3):483-95). Stocks of serotonin creatine sulfate monohydrate (Sigma H7752; St. Louis, Mo.) were prepared in M9 buffer at 40 mM and held in small aliquots at −20° C. until use. Each day of an experiment, a fresh aliquot was thawed and diluted to 10 mM 5HT in M9 buffer. This “M9-5HT” buffer was the control medium to which drugs or other compounds were added. […]
as §2

Take ivermectin: in the experiment on wild type N2 C. elegans (10 μM ivermectin in M9-5HT buffer, 10 minutes after treatment, all eight C. elegans (FIG. 4)), the “size and frequency of EPG signal” value was “significantly reduced or even eliminated”. In addition, the “block of pharyngeal pumping (EPG)” value in experiment [1] is reported as “failed to block”.

Turning to `c1ccc([C@H]2CN3CCSC3=N2)cc1` [levamisole], the “inhibition of pharyngeal pumping (EPG)” value in the experiment on wild type N2 C. elegans (10 mM levamisole in M9-5HT buffer, within 10 minutes (FIG. 6B)) is “completely inhibited”. The “pharyngeal pumping after washout of drug (EPG)” value in the experiment with wild type N2 C. elegans (after 10 mM levamisole, within 60 minutes of wash onset with control buffer (FIG. 6C)) is given as “returned to normal”.
